Test: Dissolution test of samples filled in hard gelatin capsules (Ph. Eur. Type 2 device)
Type: physicochemical
Conditions: Example 2 samples (pure silybin/silydianin), tested as described for Example 1 (capsule, pH 7.5, 100 rpm)
Protocol: For this purpose 100 mg of each Samples were filled in hard gelatin capsules (number 00). Individual capsules underwent the test on the device as per the Ph. Eur. Type 2 in 2 litres of the dissolution medium pH 7.5 and under 100 revolutions per minute.

Dissolution Values, 30 minutes (after 30 minutes): 4.6%
Dissolution Values, 60 minutes (after 60 minutes): 4.5%
SMILES: COc1cc(C2Oc3cc([C@H]4Oc5cc(O)cc(O)c5C(=O)[C@@H]4O)ccc3OC2CO)ccc1O (some centres unmarked) [Silybin, silybin]

Source: patent US7384919B2, “Increased solubility flavanolignan preparations” (IVAX Pharmaceuticals s.r.o., priority 2001, dated 2008)
